Patent publication US10806794B2, “Protease inhibitors having enhanced features” (priority 2008, dated 2020)

Columns and labels:
[1] = Metabolic stability in Sprague-Dawley rat hepatocytes; format: in vitro ADME; details: for hepatocyte CLint at 0.1 μM: read-out: Clint ± SEM
[2] = Plasma protein binding by equilibrium dialysis, mouse plasma; format: in vitro ADME; details: read-out: Mouse Plasma Protein Binding Fu ± SD
Method: (§1) In assays to estimate binding of test compounds to plasma proteins, test compound solutions (5 μM) are prepared in buffer and species-specific plasma (final DMSO concentration 0.5%). The plasma-containing solution is added to one side of the membrane of an equilibrium dialysis system, and the plasma-free is added to the other side. Dialysis was allowed to reach equilibrium by incubation for two hours at 37° C. The concentration of compound on both sides of the membrane was measured using LC-MS/MS.

CYP2C9 = CYP2C9 (Homo sapiens (Human), UniProt P11712); test: biochemical
Chain of CYP2C9 (P11712 whole entry): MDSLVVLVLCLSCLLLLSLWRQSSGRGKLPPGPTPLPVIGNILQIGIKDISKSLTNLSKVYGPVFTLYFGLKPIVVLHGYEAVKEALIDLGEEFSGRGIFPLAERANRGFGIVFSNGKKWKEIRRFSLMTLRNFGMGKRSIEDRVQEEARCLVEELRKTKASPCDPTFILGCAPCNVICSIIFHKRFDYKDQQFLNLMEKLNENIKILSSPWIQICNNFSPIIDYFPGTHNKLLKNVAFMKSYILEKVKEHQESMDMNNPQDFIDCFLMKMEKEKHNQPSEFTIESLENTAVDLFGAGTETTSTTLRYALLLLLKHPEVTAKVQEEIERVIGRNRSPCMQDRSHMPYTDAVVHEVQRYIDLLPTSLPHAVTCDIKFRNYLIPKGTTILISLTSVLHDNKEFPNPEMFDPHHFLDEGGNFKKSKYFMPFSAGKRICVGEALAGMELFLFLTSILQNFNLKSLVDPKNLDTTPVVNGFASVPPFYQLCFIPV

[3] = Plasma protein binding by equilibrium dialysis, dog plasma; format: in vitro ADME; details: read-out: Dog Plasma Protein Binding Fu ± SD
Method: as §1

[4] = Metabolic stability in cryopreserved human hepatocytes; details: human, cryopreserved human hepatocytes, CLint ± SEM, human hepatocytes, 3 uM, incubated up to one hour
Summary of the method: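 Test compounds at 0.1 μM or 3 μM incubated with cryopreserved human hepatocytes at 0.5×10^6 viable cells/mL. Sampling up to four hours (0.1 μM) or one or two hours (3 μM), methanol quench, then remaining parent measured by cassette LC-MS/MS.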

[5] = Plasma protein binding by equilibrium dialysis, rat plasma; format: in vitro ADME; details: read-out: Rat Plasma Protein Binding Fu ± SD
Method: as §1

[6] = Microsomal protein binding by equilibrium dialysis; format: in vitro ADME; details: human liver microsomes, read-out: Microsomal Protein Binding Fu ± SD
Summary of the method: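 Compound at 3 μM final in buffer with or without human liver microsomes, dialysed to equilibrium at 37 °C. Both sides quantified by LC-MS/MS to derive fraction unbound (Fu).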

CYP2D6 = CYP2D6 (Homo sapiens (Human), UniProt P10635); test: Metabolic stability in CYP2D6-expressing Bactosomes; format: in vitro ADME; details: 5 μM
Chain of CYP2D6 (P10635 whole entry, canonical isoform): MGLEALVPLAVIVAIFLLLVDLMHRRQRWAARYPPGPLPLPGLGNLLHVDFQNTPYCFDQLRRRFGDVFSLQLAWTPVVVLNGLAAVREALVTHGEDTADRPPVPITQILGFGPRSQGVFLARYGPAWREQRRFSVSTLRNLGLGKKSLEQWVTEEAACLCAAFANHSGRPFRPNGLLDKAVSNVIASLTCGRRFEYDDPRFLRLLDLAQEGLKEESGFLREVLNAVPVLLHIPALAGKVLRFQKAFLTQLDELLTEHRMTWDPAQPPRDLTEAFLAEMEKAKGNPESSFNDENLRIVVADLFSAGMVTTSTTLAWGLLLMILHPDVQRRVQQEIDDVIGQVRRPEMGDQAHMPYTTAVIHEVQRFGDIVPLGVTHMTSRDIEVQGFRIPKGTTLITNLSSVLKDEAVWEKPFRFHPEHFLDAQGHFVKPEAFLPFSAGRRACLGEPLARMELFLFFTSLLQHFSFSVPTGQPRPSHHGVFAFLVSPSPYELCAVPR
Method: (§2) Compounds were evaluated for their propensity to act as substrates of individual human cytochrome P450 enzymes using a bacterial membrane preparation co-expressing human NADPH-cytochrome P450 reductase with either human CYP3A4 or CYP2D6 (Bactosomes™ Cypex, Ltd., Dundee, UK). In vitro metabolism studies using Bactosomes™ expressing individual human CYP isoforms monitor the extent to which a test compound is metabolized by a single CYP450 enzyme and allow identification of the CYP isoforms that may be responsible for the metabolism of a test compound. Timecourse analyses of test molecules (5 μM) with CYP2D6- or CYP3A4-expressing Bactosomes™ (100 pmol/mL) are performed in buffer (0.1 M phosphate, pH 7.4) in a final reaction volume of 25 μL. […] Reactions are terminated by the addition of methanol (50 μL) containing internal standard at 0, 5, 15, 30, and 45 minutes.

CYP3A4 = CYP3A4 (Homo sapiens (Human), UniProt P08684); test: Metabolic stability in CYP3A4-expressing Bactosomes; format: in vitro ADME; details: 5 μM
Chain of CYP3A4 (P08684 whole entry): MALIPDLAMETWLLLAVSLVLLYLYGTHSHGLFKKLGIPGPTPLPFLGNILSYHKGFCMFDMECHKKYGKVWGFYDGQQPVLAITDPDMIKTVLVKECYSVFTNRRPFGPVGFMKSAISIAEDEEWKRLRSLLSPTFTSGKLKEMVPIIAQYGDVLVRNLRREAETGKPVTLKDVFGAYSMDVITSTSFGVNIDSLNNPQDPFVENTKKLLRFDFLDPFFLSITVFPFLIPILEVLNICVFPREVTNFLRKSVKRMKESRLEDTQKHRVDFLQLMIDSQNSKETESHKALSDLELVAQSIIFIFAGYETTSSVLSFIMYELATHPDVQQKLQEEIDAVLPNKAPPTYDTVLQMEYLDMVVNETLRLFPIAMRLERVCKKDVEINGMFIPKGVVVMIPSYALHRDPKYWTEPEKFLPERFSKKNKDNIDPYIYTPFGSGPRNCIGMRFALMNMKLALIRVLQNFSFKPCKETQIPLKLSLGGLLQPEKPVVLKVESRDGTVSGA
Method: as §2

[7] = Metabolic stability in cynomolgus monkey hepatocytes; format: in vitro ADME; details: cynomolgus monkey

Row | SMILES | half-life at 0.1 μM [1] | hepatocyte CLint at 0.1 μM [1] | fraction unbound at 2 h, 5 μM [2] | IC50 (CYP2C9) | fraction unbound at 2 h, 5 μM [3] | hepatocyte CLint at 3 μM [4] | fraction unbound at 2 h, 5 μM [5] | fraction unbound at 3 μM [6] | 2D6 t1/2 ± SEM (CYP2D6) | 3A4 t1/2 ± SEM (CYP3A4) | half-life at 0.1 μM [7] | hepatocyte CLint at 0.1 μM ([7]; read-out: Clint ± SEM)
1 | COC(=O)N[C@H](C(=O)N[C@@H](Cc1ccccc1)[C@@H](O)CN(Cc1ccc(-c2ccccn2)cc1)NC(=O)[C@@H](NC(=O)OC)C(C)(C)C)C(C)(C)C [Atazanavir, reference compound] | 13.7 min | 101 ± 0.00802 µL/min/1e6 cells | 0.0574 ± 0.00286 | 10.3 µM | 0.139 ± 0.0167 | 5.15 ± 1.13 µL/min/1e6 cells | 0.079 ± 0.00684 | 0.846 ± 0.0308 | – | – | – | –
2 | COCCOCCOCCOCCOCCNc1ccc(S(=O)(=O)N(CC(C)C)CC(O)[C@H](Cc2ccccc2)NC(=O)O[C@H]2CO[C@H]3OCC[C@H]32)cc1 (stereo partly drawn) [mPEG5-N-Darunavir] | – | – | – | – | – | – | – | – | 49.6 ± 2.63 min | 37.4 ± 4.78 min | – | –
3 | COCCOCCOCCOCCOCCOCCOCCNc1ccc(S(=O)(=O)N(CC(C)C)CC(O)[C@H](Cc2ccccc2)NC(=O)O[C@H]2CO[C@H]3OCC[C@H]32)cc1 (stereo partly drawn) [mPEG7-N-Darunavir] | – | – | – | – | – | – | – | – | 29.1 ± 1.95 min | 13.9 ± 1.92 min | – | –
4 | COCCOCCOCCOC(=O)NC(C(=O)NC(Cc1ccccc1)C(O)CN(Cc1ccc(-c2ccccn2)cc1)NC(=O)C(NC(=O)OC)C(C)(C)C)C(C)(C)C (stereo not drawn) [mono-mPEG3-Atazanavir, {1-[N′-[2-Hydroxy-3-(2-{2-[2-(2-methoxy-ethoxy)-ethoxy]-ethoxycarbonylamino}-3,3-dimethyl-butyrylamino)-4-phenyl-butyl]-N′-(4-pyridin-2-yl-benzyl)-hydrazinocarbonyl]-2,2-dimethyl-propyl}-carbamic Acid Methyl Ester] | 117 min | 11.9 ± 0.00223 µL/min/1e6 cells | 0.159 ± 0.0161 | 24.6 µM | 0.252 ± 0.0397 | – | 0.138 ± 0.0104 | 0.852 ± 0.0495 | – | – | 99.5 min | 13.9 ± 0.904 µL/min/1e6 cells
